Legend:
Experiment in all cases: relative viability (nuclei count vs DMSO), 5 days (fraction); higher = more cells survive
[1] = tested on: NCI-H650
Outline: (§1)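 Relative viability equals treated-well nuclei counts divided by vehicle-well nuclei counts. Counts came from 4× images of lung cancer cell lines grown in 1536-well plates for 5 days after pin-tool dosing on the day after seeding. Dosing used one drug alone or a fixed anchor-drug dose plus five library-drug doses (not always all listed) in √10 steps, and values are medians of duplicate plates.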

[2] = tested on: NCI-H2347
Outline: as §1

[3] = tested on: NCI-H460
Outline: as §1

[4] = tested on: HOP-62
Outline: as §1

[5] = tested on: NCI-H647
Outline: as §1

[6] = tested on: NCI-H2405
Outline: as §1

[7] = tested on: SW 1573
Outline: as §1

[8] = tested on: NCI-H520
Outline: as §1

[9] = tested on: SW 900
Outline: as §1

[10] = tested on: NCI-H2023
Outline: as §1

[11] = tested on: NCI-H2009
Outline: as §1

[12] = tested on: NCI-H727
Outline: as §1

[13] = tested on: LOU-NH91
Outline: as §1

[14] = tested on: ChaGo-K-1
Outline: as §1

[15] = tested on: NCI-H1793
Outline: as §1

[16] = tested on: HCC-44
Outline: as §1

[17] = tested on: NCI-H2170
Outline: as §1

[18] = tested on: EPLC-272H
Outline: as §1

[19] = tested on: NCI-H1437
Outline: as §1

[20] = tested on: EMC-BAC-2
Outline: as §1

[21] = tested on: NCI-H441
Outline: as §1

[22] = tested on: NCI-H2126
Outline: as §1

Structure (SMILES): COCC1(CO)C(=O)C2CCN1CC2 (centres undefined) [PRIMA-1MET] + Nc1ncn([C@H]2C[C@H](O)[C@@H](CO)O2)c(=O)n1 [Decitabine] (partner 2 µM)
- relative viability ([1]; first compound 0.2 µM): 0.315
- relative viability ([1]; first compound 0.6325 µM): 0.255
- relative viability ([1]; first compound 2 µM): 0.315
- relative viability ([1]; first compound 6.325 µM): 0.332
- relative viability ([1]; first compound 20 µM): 0.199
- relative viability ([2]; first compound 0.2 µM): 0.705
- relative viability ([2]; first compound 0.6325 µM): 0.549
- relative viability ([2]; first compound 2 µM): 0.605
- relative viability ([2]; first compound 6.325 µM): 0.668
- relative viability ([2]; first compound 20 µM): 0.63
- relative viability ([3]; first compound 0.2 µM): 0.595
- relative viability ([3]; first compound 0.6325 µM): 0.136
- relative viability ([3]; first compound 2 µM): 0.455
- relative viability ([3]; first compound 6.325 µM): 0.513
- relative viability ([3]; first compound 20 µM): 0.0203
- relative viability ([4]; first compound 0.2 µM): 0.22
- relative viability ([4]; first compound 0.6325 µM): 0.217
- relative viability ([4]; first compound 2 µM): 0.207
- relative viability ([4]; first compound 6.325 µM): 0.203
- relative viability ([4]; first compound 20 µM): 0.169
- relative viability ([5]; first compound 0.2 µM): 0.403
- relative viability ([5]; first compound 0.6325 µM): 0.236
- relative viability ([5]; first compound 2 µM): 0.353
- relative viability ([5]; first compound 6.325 µM): 0.333
- relative viability ([5]; first compound 20 µM): 0.39
- relative viability ([6]; first compound 0.2 µM): 0.593
- relative viability ([6]; first compound 0.6325 µM): 0.508
- relative viability ([6]; first compound 6.325 µM): 0.645
- relative viability ([6]; first compound 20 µM): 0.296
- relative viability ([7]; first compound 0.2 µM): 0.58
- relative viability ([7]; first compound 2 µM): 0.285
- relative viability ([7]; first compound 6.325 µM): 0.0265
- relative viability ([7]; first compound 20 µM): 0.0223
- relative viability ([8]; first compound 0.2 µM): 0.506
- relative viability ([8]; first compound 2 µM): 0.413
- relative viability ([8]; first compound 6.325 µM): 0.521
- relative viability ([8]; first compound 20 µM): 0.219
- relative viability ([9]; first compound 0.2 µM): 0.402
- relative viability ([9]; first compound 0.6325 µM): 0.386
- relative viability ([9]; first compound 6.325 µM): 0.425
- relative viability ([9]; first compound 20 µM): 0.0976
- relative viability ([10]; first compound 0.2 µM): 0.211
- relative viability ([10]; first compound 0.6325 µM): 0.128
- relative viability ([10]; first compound 2 µM): 0.235
- relative viability ([10]; first compound 6.325 µM): 0.216
- relative viability ([10]; first compound 20 µM): 0.209
- relative viability ([11]; first compound 0.2 µM): 0.383
- relative viability ([11]; first compound 0.6325 µM): 0.389
- relative viability ([11]; first compound 2 µM): 0.341
- relative viability ([11]; first compound 6.325 µM): 0.345
- relative viability ([11]; first compound 20 µM): 0.153
- relative viability ([12]; first compound 0.2 µM): 0.594
- relative viability ([12]; first compound 0.6325 µM): 0.385
- relative viability ([12]; first compound 6.325 µM): 0.849
- relative viability ([12]; first compound 20 µM): 0.685
- relative viability ([13]; first compound 0.2 µM): 0.89
- relative viability ([13]; first compound 0.6325 µM): 0.794
- relative viability ([13]; first compound 2 µM): 0.806
- relative viability ([13]; first compound 6.325 µM): 0.828
- relative viability ([13]; first compound 20 µM): 0.613
- relative viability ([14]; first compound 0.2 µM): 0.514
- relative viability ([14]; first compound 0.6325 µM): 0.362
- relative viability ([14]; first compound 2 µM): 0.557
- relative viability ([14]; first compound 6.325 µM): 0.518
- relative viability ([14]; first compound 20 µM): 0.518
- relative viability ([15]; first compound 0.2 µM): 0.484
- relative viability ([15]; first compound 0.6325 µM): 0.333
- relative viability ([15]; first compound 6.325 µM): 0.489
- relative viability ([15]; first compound 20 µM): 0.424
- relative viability ([16]; first compound 0.2 µM): 1.04
- relative viability ([16]; first compound 0.6325 µM): 0.595
- relative viability ([16]; first compound 2 µM): 0.998
- relative viability ([16]; first compound 6.325 µM): 0.942
- relative viability ([16]; first compound 20 µM): 0.93
- relative viability ([17]; first compound 0.2 µM): 0.42
- relative viability ([17]; first compound 0.6325 µM): 0.324
- relative viability ([17]; first compound 2 µM): 0.43
- relative viability ([17]; first compound 6.325 µM): 0.457
- relative viability ([17]; first compound 20 µM): 0.457
- relative viability ([18]; first compound 0.2 µM): 0.353
- relative viability ([18]; first compound 0.6325 µM): 0.306
- relative viability ([18]; first compound 2 µM): 0.323
- relative viability ([18]; first compound 6.325 µM): 0.392
- relative viability ([18]; first compound 20 µM): 0.272
- relative viability ([19]; first compound 0.2 µM): 0.607
- relative viability ([19]; first compound 0.6325 µM): 0.37
- relative viability ([19]; first compound 2 µM): 0.599
- relative viability ([19]; first compound 6.325 µM): 0.59
- relative viability ([19]; first compound 20 µM): 0.552
- relative viability ([20]; first compound 0.2 µM): 1
- relative viability ([20]; first compound 0.6325 µM): 0.818
- relative viability ([20]; first compound 2 µM): 0.967
- relative viability ([20]; first compound 6.325 µM): 0.938
- relative viability ([20]; first compound 20 µM): 0.928
- relative viability ([21]; first compound 0.2 µM): 0.232
- relative viability ([21]; first compound 0.6325 µM): 0.21
- relative viability ([21]; first compound 2 µM): 0.22
- relative viability ([21]; first compound 6.325 µM): 0.23
- relative viability ([21]; first compound 20 µM): 0.169
- relative viability ([22]; first compound 0.2 µM): 0.59
- relative viability ([22]; first compound 0.6325 µM): 0.579
- relative viability ([22]; first compound 2 µM): 0.544
- relative viability ([22]; first compound 6.325 µM): 0.631
- relative viability ([22]; first compound 20 µM): 0.619

From the supplement of paper PMC10307832
